The record followed here is publication PMC4853780, “HpDTC1, a Stress-Inducible Bifunctional Diterpene Cyclase Involved in Momilactone Biosynthesis, Functions in Chemical Defence in the Moss Hypnum plumaeforme” (Scientific Reports, 2016).

Holding throughout (format): biochemical
One experiment addresses T1, OsCPS4 (Oryza sativa, UniProt Q0JF02).
T1 construct: gene CPS4; enzyme preparation not described in main text
The experiment is described as follows: GC-MS of product after dephosphorylation. To be noted: product syn-CDP, detected as syn-copalol after calf intestinal alkaline phosphatase.

Experiment [1] deals with T2, HpDTC1 (Calohypnum plumiforme, UniProt A0A173M1U8).
T2 construct: His6-tag, pCold I, E. coli M-15
T2 sequence (A0A173M1U8 entry or part of it): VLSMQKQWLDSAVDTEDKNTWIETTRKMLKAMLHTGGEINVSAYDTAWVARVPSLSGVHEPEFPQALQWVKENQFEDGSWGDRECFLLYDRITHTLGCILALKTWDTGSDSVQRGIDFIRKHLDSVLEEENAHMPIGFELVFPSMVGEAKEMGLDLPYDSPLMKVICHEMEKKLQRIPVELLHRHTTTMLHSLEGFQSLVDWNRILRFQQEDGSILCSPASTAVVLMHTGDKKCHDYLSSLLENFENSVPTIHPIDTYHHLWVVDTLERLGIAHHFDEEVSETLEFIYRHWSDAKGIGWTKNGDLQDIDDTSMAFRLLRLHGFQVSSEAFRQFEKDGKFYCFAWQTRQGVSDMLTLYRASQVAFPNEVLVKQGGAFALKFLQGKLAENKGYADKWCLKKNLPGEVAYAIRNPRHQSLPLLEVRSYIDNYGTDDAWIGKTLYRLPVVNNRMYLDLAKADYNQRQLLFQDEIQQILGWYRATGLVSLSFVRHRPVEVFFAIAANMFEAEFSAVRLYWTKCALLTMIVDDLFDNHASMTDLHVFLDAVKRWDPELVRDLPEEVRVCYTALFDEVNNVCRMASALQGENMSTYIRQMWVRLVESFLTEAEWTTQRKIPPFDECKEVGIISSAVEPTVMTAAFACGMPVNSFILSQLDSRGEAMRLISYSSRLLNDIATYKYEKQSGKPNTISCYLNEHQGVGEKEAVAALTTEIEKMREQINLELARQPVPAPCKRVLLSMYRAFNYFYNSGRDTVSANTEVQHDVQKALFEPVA
The experiment is described as follows: GC-MS of reaction product. To be noted: product syn-pimara-7,15-diene.

Experiment [2] addresses T3, HpDTC1 (Calohypnum plumiforme, UniProt A0A173M1U8, D394G/D395G).
T3 construct: His6-tag, pCold I, E. coli M-15
The experiment is described as follows: GC-MS of product, co-incubation with OsCPS4. To be noted: syn-CDP formed in situ from GGDP by OsCPS4; type A activity; product syn-pimara-7,15-diene.

T3 sequence (A0A173M1U8 entry or part of it D394G/D395G): as the sequence (A0A173M1U8 entry or part of it) above, with D309G, D310G counted along it
T1 sequence (Q0JF02 48-767): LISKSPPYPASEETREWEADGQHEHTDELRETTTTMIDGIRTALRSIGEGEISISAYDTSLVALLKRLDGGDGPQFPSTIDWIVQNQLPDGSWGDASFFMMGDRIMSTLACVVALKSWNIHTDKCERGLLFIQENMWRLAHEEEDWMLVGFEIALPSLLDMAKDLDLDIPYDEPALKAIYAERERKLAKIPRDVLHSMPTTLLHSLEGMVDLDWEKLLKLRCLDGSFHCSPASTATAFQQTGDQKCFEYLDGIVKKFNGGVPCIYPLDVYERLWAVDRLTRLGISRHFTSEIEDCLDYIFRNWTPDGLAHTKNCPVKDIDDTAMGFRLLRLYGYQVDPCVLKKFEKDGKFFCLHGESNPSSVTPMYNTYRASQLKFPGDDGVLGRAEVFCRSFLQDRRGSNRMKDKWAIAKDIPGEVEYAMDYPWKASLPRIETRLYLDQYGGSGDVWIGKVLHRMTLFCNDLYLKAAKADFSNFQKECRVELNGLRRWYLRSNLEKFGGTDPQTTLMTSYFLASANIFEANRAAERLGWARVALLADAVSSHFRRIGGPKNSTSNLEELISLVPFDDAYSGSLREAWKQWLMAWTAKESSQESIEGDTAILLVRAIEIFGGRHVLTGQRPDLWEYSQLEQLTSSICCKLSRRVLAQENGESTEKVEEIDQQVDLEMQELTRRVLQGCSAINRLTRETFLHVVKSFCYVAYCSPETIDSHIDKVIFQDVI

Take `CC(C)=CCC/C(C)=C/CC/C(C)=C/CC/C(C)=C/COP(=O)(O)OP(=O)(O)O` [GGDP]: at OsCPS4, the “GC-MS of product after dephosphorylation” value is “syn-copalol derived from syn-CDP, product of OsCPS4”. Moreover, at HpDTC1 [1], the “GC-MS of reaction product” value is listed as “used for the enzyme assay using GGDP as a substrate”.

As for `C=C1CC[C@H]2C(C)(C)CCC[C@]2(C)[C@@H]1CC/C(C)=C/COP(=O)(O)OP(=O)(O)O` [syn-CDP], the “GC-MS of product, co-incubation with OsCPS4” value on HpDTC1 [2] is “Co-incubation with OsCPS4 and the type B mutant of HpDTC1 (DIGG) complemented the impaired”.
